Experimental data from patent US20250236589A1, “THERAPEUTIC PHENETHYLAMINE COMPOSITIONS AND METHODS OF USE” (Cybin IRL Limited, priority 2022, published 2025).
Read-outs that look alike come from different tables or passages of the source.

Key:
human alpha2B receptor = human alpha2B receptor (Homo sapiens (Human), UniProt P18089); assay: alpha2B receptor binding ([3H]rauwolscine)
Method: At 10 μM, I-1 inhibited 97% of radioligand bound to rat alpha2 receptors.

D2S (h) = D2S (h) (Homo sapiens (Human), UniProt P14416); assay: Off-target screen, radioligand displacement at 10 μM; conditions: read-out: binding at 10 μM
D2S (h), sequence (P14416 whole entry, looked up): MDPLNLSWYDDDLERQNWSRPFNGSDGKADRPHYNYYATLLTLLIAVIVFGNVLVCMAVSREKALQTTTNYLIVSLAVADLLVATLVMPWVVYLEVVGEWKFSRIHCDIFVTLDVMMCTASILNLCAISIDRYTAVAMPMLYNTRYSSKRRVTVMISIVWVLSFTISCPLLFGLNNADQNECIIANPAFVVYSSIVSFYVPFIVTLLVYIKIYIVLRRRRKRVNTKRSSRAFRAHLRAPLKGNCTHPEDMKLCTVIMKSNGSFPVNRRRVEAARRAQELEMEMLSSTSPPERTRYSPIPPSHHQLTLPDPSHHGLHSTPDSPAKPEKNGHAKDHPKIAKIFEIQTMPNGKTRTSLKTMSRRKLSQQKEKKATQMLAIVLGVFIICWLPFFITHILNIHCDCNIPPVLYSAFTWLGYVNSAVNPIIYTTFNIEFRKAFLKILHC

[1] = In vitro liver microsome stability (RLM); assay type: in vitro ADME; conditions: rat, rat liver microsomes, 0.5 mg/mL microsomes, NADPH, read-out: RLM, t1/2
Method: (§1) In vitro stability was determined in Human (HLM), Rat (RLM), Mouse (MsLM), and dog (DLM) Liver Microsomes. All liver microsomes were purchased from a commercial supplier (e.g. XenoTech). The reaction mixture, minus NADPH, was prepared as described below. The test compound was added into the reaction mixture at a final concentration of 1 μM or co-dosed with their deuterated analog(s) at 1 μM each. The control compound, testosterone, was run simultaneously with the test compound in a separate reaction. The reaction mixture (without cofactor) was equilibrated in a shaking water bath at 37° C. for 5 minutes. The reaction was initiated by the addition of the cofactor, and the mixture was incubated in a shaking water bath at 37° C. Aliquots (150 μL) were withdrawn at 0, 5, 10, 20, 30, 60, and 120 minutes. Test compound and testosterone samples were immediately combined with 150 μL of ice-cold acetonitrile (ACN) containing 0.1% formic acid and internal standard to terminate the reaction. The samples were then mixed and centrifuged to precipitate proteins. All samples were assayed by LC-MS/MS using electrospray ionization. The peak area response ratio (PARR) of analyte to internal standard at each time point was compared to the PARR at time 0 to determine the percent remaining at each time point. Half-lives were calculated using GraphPad software, fitting to a single-phase exponential decay equation.

TNF-α (h) = assay: Off-target screen, radioligand displacement at 10 μM; assay type: binding, human
δ-opioid (h) = δ-opioid (h) (Homo sapiens (Human), UniProt P41143); assay: as above; conditions: read-out: binding at 10 μM
δ-opioid (h), sequence (P41143 whole entry, looked up): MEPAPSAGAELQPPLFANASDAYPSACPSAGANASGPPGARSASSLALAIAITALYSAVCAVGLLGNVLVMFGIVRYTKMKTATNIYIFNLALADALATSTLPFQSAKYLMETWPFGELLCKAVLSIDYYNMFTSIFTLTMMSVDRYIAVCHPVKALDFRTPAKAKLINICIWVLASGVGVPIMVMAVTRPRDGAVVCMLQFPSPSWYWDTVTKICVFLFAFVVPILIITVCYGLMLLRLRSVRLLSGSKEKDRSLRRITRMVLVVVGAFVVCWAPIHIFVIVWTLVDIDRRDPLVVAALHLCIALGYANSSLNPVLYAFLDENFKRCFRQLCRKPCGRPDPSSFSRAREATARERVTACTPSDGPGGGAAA

Dopamine D1 (h) = Dopamine D1 (h) (Homo sapiens (Human), UniProt P21728); assay: as above; assay type: binding
Dopamine D1 (h), sequence (P21728 whole entry, looked up): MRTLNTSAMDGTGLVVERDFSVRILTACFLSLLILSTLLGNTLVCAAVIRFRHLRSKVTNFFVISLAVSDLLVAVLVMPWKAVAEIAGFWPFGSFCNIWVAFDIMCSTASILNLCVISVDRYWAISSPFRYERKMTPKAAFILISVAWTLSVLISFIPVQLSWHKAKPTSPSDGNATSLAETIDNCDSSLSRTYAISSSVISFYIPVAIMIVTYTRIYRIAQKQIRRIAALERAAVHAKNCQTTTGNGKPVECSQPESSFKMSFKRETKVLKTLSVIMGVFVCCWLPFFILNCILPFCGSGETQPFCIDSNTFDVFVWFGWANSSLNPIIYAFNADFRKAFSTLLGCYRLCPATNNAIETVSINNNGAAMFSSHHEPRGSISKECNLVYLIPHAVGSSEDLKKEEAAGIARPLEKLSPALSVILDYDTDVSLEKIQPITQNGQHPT

[2] = In vitro liver microsome stability (MsLM); assay type: in vitro ADME; conditions: mouse, mouse liver microsomes, 0.5 mg/mL microsomes, NADPH, read-out: MsLM, t1/2
Method: as §1, with “The peak area response ratio (PARR) of analyte to internal standard at each time point was compared to the PARR at time 0 to determine the percent remaining at each time point.” left out

[3] = target: Cholecystokinin CCK1 (CCKA) (h) (Homo sapiens (Human), UniProt P32238); assay: Off-target screen, radioligand displacement at 10 μM; conditions: read-out: binding at 10 μM
Cholecystokinin CCK1 (CCKA) (h), sequence (P32238 whole entry, looked up): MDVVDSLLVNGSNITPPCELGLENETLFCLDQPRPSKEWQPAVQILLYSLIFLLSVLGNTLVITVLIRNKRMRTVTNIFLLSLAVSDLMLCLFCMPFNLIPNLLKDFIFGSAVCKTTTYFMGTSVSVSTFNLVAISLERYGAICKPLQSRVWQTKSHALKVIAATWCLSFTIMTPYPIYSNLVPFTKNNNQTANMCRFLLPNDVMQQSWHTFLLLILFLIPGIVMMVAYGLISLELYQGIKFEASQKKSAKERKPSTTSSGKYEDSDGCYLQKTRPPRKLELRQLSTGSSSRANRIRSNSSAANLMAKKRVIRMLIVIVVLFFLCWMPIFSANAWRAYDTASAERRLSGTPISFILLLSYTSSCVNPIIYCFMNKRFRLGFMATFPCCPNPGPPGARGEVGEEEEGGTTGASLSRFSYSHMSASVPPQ

[4] = tested on: Calcium SKCa channel (rat cortex); assay: as above; assay type: binding
5-HT2A receptor = 5-HT2A receptor (Homo sapiens (Human), UniProt P28223); assay: 5-HT2A radioligand competition binding ([3H]LSD or [3H]ketanserin)
human alpha2A receptor = human alpha2A receptor (Homo sapiens (Human), UniProt P08913); assay: alpha2A receptor function; assay type: cell-based
human alpha2A receptor, sequence (P08913 whole entry): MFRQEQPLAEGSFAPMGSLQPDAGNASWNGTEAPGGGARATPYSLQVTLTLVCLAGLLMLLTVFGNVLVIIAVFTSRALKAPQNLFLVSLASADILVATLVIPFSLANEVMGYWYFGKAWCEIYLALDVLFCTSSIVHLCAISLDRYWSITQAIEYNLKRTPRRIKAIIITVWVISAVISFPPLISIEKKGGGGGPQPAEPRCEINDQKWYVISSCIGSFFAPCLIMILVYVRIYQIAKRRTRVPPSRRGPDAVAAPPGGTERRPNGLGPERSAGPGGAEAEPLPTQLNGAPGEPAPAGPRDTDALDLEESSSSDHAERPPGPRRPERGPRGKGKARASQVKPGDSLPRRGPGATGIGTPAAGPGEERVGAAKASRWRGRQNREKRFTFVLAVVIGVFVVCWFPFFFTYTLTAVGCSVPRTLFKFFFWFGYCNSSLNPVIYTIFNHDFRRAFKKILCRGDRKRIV

[5] = tested on: sigma (non-selective) (h); assay: Off-target screen, radioligand displacement at 10 μM; assay type: binding, human; conditions: agonist radioligand
Galanin GAL1 (h) = Galanin GAL1 (h) (Homo sapiens (Human), UniProt P47211); assay: as above; conditions: read-out: binding at 10 μM
Galanin GAL1 (h), sequence (P47211 whole entry, looked up): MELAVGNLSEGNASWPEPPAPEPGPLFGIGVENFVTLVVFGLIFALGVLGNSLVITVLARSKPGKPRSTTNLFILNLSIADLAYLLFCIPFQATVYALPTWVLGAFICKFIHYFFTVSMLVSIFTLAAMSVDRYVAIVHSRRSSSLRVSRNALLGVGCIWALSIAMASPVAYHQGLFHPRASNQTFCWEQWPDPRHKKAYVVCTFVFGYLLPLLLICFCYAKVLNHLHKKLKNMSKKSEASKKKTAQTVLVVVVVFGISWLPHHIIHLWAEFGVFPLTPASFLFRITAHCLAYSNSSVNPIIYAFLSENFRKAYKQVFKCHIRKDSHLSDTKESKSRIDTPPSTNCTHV

5-HT2C receptor = 5-HT2C receptor (Homo sapiens (Human), UniProt P28335); assay: 5-HT2C agonist radioligand binding ([125I]DOI)
5-HT2C receptor, sequence (P28335 whole entry, looked up): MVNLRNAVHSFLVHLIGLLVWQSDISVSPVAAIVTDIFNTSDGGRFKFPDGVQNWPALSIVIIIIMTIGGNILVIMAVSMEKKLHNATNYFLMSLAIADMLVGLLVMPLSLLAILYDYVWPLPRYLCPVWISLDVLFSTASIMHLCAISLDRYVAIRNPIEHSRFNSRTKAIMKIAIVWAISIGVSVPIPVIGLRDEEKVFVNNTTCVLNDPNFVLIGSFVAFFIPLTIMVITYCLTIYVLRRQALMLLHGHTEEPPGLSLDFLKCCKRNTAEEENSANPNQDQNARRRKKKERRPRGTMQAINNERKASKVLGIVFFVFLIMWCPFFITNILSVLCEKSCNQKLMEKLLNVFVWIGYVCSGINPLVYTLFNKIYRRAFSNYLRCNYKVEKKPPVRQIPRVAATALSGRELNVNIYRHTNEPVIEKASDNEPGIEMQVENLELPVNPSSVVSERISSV
Description: 5-HT2 Receptor Activity. […] Drug Test Anal 2012, 4 (7-8), 556-76. Ray, T. S., Psychedelics and the human receptorome. PLoS One 2010, 5 (2), e9019].

Glucocorticoid GR (h) = Glucocorticoid GR (h) (Homo sapiens (Human), UniProt P04150); assay: Off-target screen, radioligand displacement at 10 μM; conditions: read-out: binding at 10 μM
Glucocorticoid GR (h), sequence (P04150 whole entry, looked up): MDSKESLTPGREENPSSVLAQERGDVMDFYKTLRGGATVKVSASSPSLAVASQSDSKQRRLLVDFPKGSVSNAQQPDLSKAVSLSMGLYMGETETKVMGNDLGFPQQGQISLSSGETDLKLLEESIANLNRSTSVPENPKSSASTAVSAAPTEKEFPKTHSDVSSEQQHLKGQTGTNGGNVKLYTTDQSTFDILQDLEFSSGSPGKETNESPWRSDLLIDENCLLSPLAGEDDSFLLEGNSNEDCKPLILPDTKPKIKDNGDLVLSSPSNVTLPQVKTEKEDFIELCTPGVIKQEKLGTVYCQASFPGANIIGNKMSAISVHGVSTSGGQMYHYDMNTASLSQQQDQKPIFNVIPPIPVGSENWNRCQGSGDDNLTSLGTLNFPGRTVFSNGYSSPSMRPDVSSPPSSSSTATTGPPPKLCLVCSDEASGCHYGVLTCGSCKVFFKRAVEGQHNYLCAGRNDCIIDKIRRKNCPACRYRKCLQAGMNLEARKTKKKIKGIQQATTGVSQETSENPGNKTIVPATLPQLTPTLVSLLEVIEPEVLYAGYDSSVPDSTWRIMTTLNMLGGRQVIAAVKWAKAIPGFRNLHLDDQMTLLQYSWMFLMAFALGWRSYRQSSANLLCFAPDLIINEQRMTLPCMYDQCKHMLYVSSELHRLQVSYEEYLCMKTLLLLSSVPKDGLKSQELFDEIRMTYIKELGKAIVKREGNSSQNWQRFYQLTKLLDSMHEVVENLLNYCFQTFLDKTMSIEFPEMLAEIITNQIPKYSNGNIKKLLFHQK

[6] = tested on: Adrenergic α2 (subtype not identified) (rat cortex); assay: as above; assay type: binding; conditions: antagonist radioligand
[7] = Plasma and brain concentrations after dosing in mice (screening); assay type: in vivo, mouse; conditions: for concentration at 160 min: sc, mice, 3 mg/kg s.c.
Melatonin MT1 (h) = Melatonin MT1 (h) (Homo sapiens (Human), UniProt P48039); assay: Off-target screen, radioligand displacement at 10 μM; conditions: read-out: binding at 10 μM
Melatonin MT1 (h), sequence (P48039 whole entry, looked up): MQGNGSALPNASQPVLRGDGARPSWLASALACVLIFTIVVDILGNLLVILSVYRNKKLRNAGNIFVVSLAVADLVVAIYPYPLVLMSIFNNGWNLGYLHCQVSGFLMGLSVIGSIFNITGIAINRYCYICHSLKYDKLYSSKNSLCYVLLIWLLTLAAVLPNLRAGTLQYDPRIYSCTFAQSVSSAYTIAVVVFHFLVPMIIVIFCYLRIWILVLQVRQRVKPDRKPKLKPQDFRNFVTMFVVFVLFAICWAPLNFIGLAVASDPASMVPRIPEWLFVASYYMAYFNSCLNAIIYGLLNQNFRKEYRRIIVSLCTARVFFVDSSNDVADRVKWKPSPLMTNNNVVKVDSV

5-HT1A receptors = 5-HT1A receptors (Homo sapiens (Human), UniProt P08908); assay: 5-HT1A radioligand binding ([3H]8-OH-DPAT)
Method: In another series of 5-HT1A,2A,2B radioligand competition binding assays, the conditions were as follows: For 5-HT1A assays, cell membrane homogenates (˜30 μg protein) derived from HEK-293 cells expressing human 5-HT1ARs were incubated with 0.5 nM [^3H]8-hydroxy-2-(di-n-propylamino)tetralin ([^3H]8-OH-DPAT) for 60 min at room temperature in the presence or absence of the test article. Non-specific binding was determined in the presence of 10 μM 8-OH-DPAT. Samples were then analyzed as described above, with only immaterial differences. […] Samples were then analyzed as described above.

dopamine transporter (h) = dopamine transporter (h) (Homo sapiens (Human), UniProt Q01959); assay: Off-target screen, radioligand displacement at 10 μM; conditions: read-out: binding at 10 μM
Muscarinic M3 (h) = Muscarinic M3 (h) (Homo sapiens (Human), UniProt P20309); assay: as above; assay type: binding; conditions: antagonist radioligand
Muscarinic M3 (h), sequence (P20309 whole entry, looked up): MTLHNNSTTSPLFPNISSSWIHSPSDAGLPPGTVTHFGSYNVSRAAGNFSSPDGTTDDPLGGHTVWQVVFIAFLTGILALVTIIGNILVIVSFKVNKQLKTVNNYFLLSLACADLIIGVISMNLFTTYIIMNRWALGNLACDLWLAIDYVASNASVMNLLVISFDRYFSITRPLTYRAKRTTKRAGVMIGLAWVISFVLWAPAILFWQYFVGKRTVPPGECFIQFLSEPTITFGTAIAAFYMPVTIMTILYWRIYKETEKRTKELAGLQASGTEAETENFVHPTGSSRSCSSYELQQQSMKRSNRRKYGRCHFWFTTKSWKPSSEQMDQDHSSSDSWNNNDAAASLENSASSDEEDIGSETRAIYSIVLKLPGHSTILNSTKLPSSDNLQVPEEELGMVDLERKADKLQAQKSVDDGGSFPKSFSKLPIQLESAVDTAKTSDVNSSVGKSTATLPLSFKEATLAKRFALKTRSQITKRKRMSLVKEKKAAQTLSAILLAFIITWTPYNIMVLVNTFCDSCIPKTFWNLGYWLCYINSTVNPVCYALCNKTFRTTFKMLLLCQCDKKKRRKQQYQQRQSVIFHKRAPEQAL

COc1cc(SC(F)(F)F)c(OC)cc1CCN [Compound I-1, 2-(2,5-dimethoxy-4-((trifluoromethyl)thio)phenyl)ethan-1-amine]
Ki (human alpha2B receptor): 1020 nM
inhibition at 10 µM (D2S (h)): < 50%
half-life at 1 μM [1]: 55.2 min
binding at 10 μM (TNF-α (h)): NB (inhibited less than 50% of radioligand bound to them, and therefore it can be concluded they do not bind (“no binding,” NB))
inhibition at 10 µM (δ-opioid (h)): < 50%
inhibition at 10 µM (Dopamine D1 (h); antagonist radioligand, read-out: inhibition at 10 μM): 57%
half-life at 1 μM [2]: > 120 min
inhibition at 10 µM [3]: < 50%
binding at 10 μM [4]: NB (inhibited less than 50% of radioligand bound to them, and therefore it can be concluded they do not bind (“no binding,” NB))
Ki (5-HT2A receptor): 54 nM
affinity at 5-HT2A receptors (in words) (5-HT2A receptor): superior affinity
Ki (5-HT2A receptor; read-out: 5-HT2A, Ki, [3H]ketanserin, high-affinity active state): 2.5 nM
EC50 (human alpha2A receptor): 165 nM
inhibition at 10 µM [5]: 64.1% inhibition at 10 μM
inhibition at 10 µM (Galanin GAL1 (h)): < 50%
inhibition at 10 µM (5-HT2C receptor): > 80%
binding selectivity for 5-HT2C over 5-HT2B (5-HT2C receptor; Ki, [125I]DOI): ~12 fold
Ki (5-HT2C receptor; radioligand [125I](±)DOI, read-out: 5-HT2C, Ki): 0.55 nM
inhibition at 10 µM (Glucocorticoid GR (h)): < 50%
inhibition at 10 µM [6]: 97.3%
brain/plasma ratio, 160 min ([7]; 160 min after 3 mg/kg): 32.4
concentration at 160 min ([7]; mouse, brain, read-out: Brain, 160 min): 9.6 µM
Kp at 160 min ([7]; mouse, brain/plasma, subcutaneous, 3 mg/kg, 160 min after 3 mg/kg, read-out: brain/plasma ratio, 160 min): 24 to 32
concentration at 160 min ([7]; mouse, plasma, read-out: Plasma, 160 min): 0.3 µM
inhibition at 10 µM (Melatonin MT1 (h)): < 50%
inhibition at 0.1 µM (5-HT1A receptors; 100 nM): 55%
inhibition at 1 µM (5-HT1A receptors; 1 uM): 90%
inhibition at 10 µM (dopamine transporter (h)): < 50%
inhibition at 10 µM (Muscarinic M3 (h)): 79%

COc1cc(CC(C)N)c(OC)cc1I (racemic) [DOI, (±)-2,5-dimethoxy-4-iodoamphetamine, reference compound]
inhibition at 10 µM (D2S (h)): < 50%
binding at 10 μM (TNF-α (h)): NB (inhibited less than 50% of radioligand bound to them, and therefore it can be concluded they do not bind (“no binding,” NB))
inhibition at 10 µM (δ-opioid (h)): < 50%
inhibition at 10 µM (Dopamine D1 (h); read-out: binding at 10 μM): < 50%
inhibition at 10 µM [3]: < 50%
binding at 10 μM [4]: NB (inhibited less than 50% of radioligand bound to them, and therefore it can be concluded they do not bind (“no binding,” NB))
inhibition at 10 µM [5]: 61.7% inhibition at 10 μM
inhibition at 10 µM (Galanin GAL1 (h)): < 50%
Ki (5-HT2C receptor): 0.48 nM
inhibition at 10 µM (Glucocorticoid GR (h)): < 50%
inhibition at 10 µM (Melatonin MT1 (h)): < 50%
inhibition at 10 µM (dopamine transporter (h)): < 50%
inhibition at 10 µM (Muscarinic M3 (h)): 60.4%
